Source: the NIST ThermoML archive (doi:10.1021/je060271a)
± gives the expanded uncertainty stated by the source.

Conditions: 303.15 K, Liquid, Vibrating tube method

CCCCC(=O)OCC(COC(=O)CCCC)(COC(=O)CCCC)COC(=O)CCCC [pentaerythritol tetrapentanoate]
Conditions	mass density [kg/m3]
2232.7 kPa	1012.2 ± 1.2
2240.1 kPa	1012.3 ± 1.2
2247.8 kPa	1012.4 ± 1.2
2256.6 kPa	1012.3 ± 1.2
2264.4 kPa	1012.4 ± 1.2
2272.4 kPa	1012.3 ± 1.2
2281.6 kPa	1012.4 ± 1.2
2289.2 kPa	1012.3 ± 1.2
2297.4 kPa	1012.3 ± 1.2
2305.2 kPa	1012.3 ± 1.2
2314.7 kPa	1012.3 ± 1.2
2322.9 kPa	1012.2 ± 1.2
2330.3 kPa	1012.3 ± 1.2
2339.9 kPa	1012.4 ± 1.2
2348.2 kPa	1012.5 ± 1.2
2356.9 kPa	1012.5 ± 1.2
2365.6 kPa	1012.3 ± 1.2
2373.5 kPa	1012.5 ± 1.2
2383.8 kPa	1012.3 ± 1.2
2391.9 kPa	1012.4 ± 1.2
2402.3 kPa	1012.4 ± 1.2
2411 kPa	1012.3 ± 1.2
2419.3 kPa	1012.5 ± 1.2
2429.4 kPa	1012.4 ± 1.2
2438.1 kPa	1012.4 ± 1.2
2446.9 kPa	1012.4 ± 1.2
2455.6 kPa	1012.5 ± 1.2
2464.8 kPa	1012.4 ± 1.2
2475.4 kPa	1012.4 ± 1.2
2484.4 kPa	1012.5 ± 1.2
2493.4 kPa	1012.4 ± 1.2
2504.2 kPa	1012.4 ± 1.2
2513.4 kPa	1012.4 ± 1.2
2522.4 kPa	1012.5 ± 1.2
2531.8 kPa	1012.5 ± 1.2
2543 kPa	1012.6 ± 1.2
2552.4 kPa	1012.5 ± 1.2
2561.7 kPa	1012.5 ± 1.2
2573.2 kPa	1012.4 ± 1.2
2582.7 kPa	1012.6 ± 1.2
2592.3 kPa	1012.5 ± 1.2
2601.8 kPa	1012.5 ± 1.2
2613.6 kPa	1012.6 ± 1.2
2623.2 kPa	1012.5 ± 1.2
2632.7 kPa	1012.5 ± 1.2
2642.9 kPa	1012.6 ± 1.2
2654.9 kPa	1012.6 ± 1.2
2664.6 kPa	1012.5 ± 1.2
2676.8 kPa	1012.5 ± 1.2
2686.8 kPa	1012.6 ± 1.2
2697.2 kPa	1012.6 ± 1.2
2707.4 kPa	1012.6 ± 1.2
2719.9 kPa	1012.6 ± 1.2
2730.3 kPa	1012.6 ± 1.2
2740.9 kPa	1012.6 ± 1.2
2751.7 kPa	1012.5 ± 1.2
2764.8 kPa	1012.6 ± 1.2
2775.1 kPa	1012.6 ± 1.2
2785.8 kPa	1012.7 ± 1.2
2799.2 kPa	1012.6 ± 1.2
2810.1 kPa	1012.7 ± 1.2
2820.9 kPa	1012.7 ± 1.2
2833.5 kPa	1012.7 ± 1.2
2844.6 kPa	1012.7 ± 1.2
2855.9 kPa	1012.6 ± 1.2
2869.2 kPa	1012.7 ± 1.2
2880.7 kPa	1012.7 ± 1.2
2892.5 kPa	1012.8 ± 1.2
2904.8 kPa	1012.8 ± 1.2
2916.2 kPa	1012.6 ± 1.2
2930.1 kPa	1012.7 ± 1.2
2941.7 kPa	1012.8 ± 1.2
2953.3 kPa	1012.8 ± 1.2
2967.4 kPa	1012.8 ± 1.2
2979.5 kPa	1012.7 ± 1.2
2991.5 kPa	1012.8 ± 1.2
3006.1 kPa	1012.7 ± 1.2
3018.4 kPa	1012.8 ± 1.2
3030.5 kPa	1012.7 ± 1.2
3043.3 kPa	1012.8 ± 1.2
3058.9 kPa	1012.8 ± 1.2
3070.7 kPa	1012.9 ± 1.2
3083.2 kPa	1012.8 ± 1.2
3096 kPa	1012.8 ± 1.2
3108.7 kPa	1012.8 ± 1.2
3123.9 kPa	1012.9 ± 1.2
3136.6 kPa	1012.8 ± 1.2
3149.9 kPa	1013 ± 1.2
3165.5 kPa	1012.9 ± 1.2
3179.1 kPa	1013 ± 1.2
3192.6 kPa	1012.9 ± 1.2
3205.9 kPa	1012.9 ± 1.2
3222.1 kPa	1012.9 ± 1.2
3236.3 kPa	1012.9 ± 1.2
3249.8 kPa	1012.8 ± 1.2
3263.8 kPa	1013 ± 1.2
3280.5 kPa	1013 ± 1.2
3294.2 kPa	1013 ± 1.2
3310.8 kPa	1013 ± 1.2
3324.8 kPa	1013 ± 1.2
3339.2 kPa	1013.1 ± 1.2
3353.6 kPa	1013 ± 1.2
3368.2 kPa	1013 ± 1.2
3385.5 kPa	1013 ± 1.2
3400.2 kPa	1013.1 ± 1.2
3415.1 kPa	1013.1 ± 1.2
3433 kPa	1013.1 ± 1.2
3448.4 kPa	1012.9 ± 1.2
3463.3 kPa	1013.1 ± 1.2
3478.2 kPa	1013.1 ± 1.2
3496.8 kPa	1013.2 ± 1.2
3512 kPa	1013 ± 1.2
3527.8 kPa	1013.1 ± 1.2
3546.5 kPa	1013.2 ± 1.2
3562.5 kPa	1013.1 ± 1.2
3578.4 kPa	1013.2 ± 1.2
3594 kPa	1013.2 ± 1.2
3613.4 kPa	1013.2 ± 1.2
3630 kPa	1013 ± 1.2
3646.7 kPa	1013.2 ± 1.2
3663.3 kPa	1013.1 ± 1.2
3683.1 kPa	1013.2 ± 1.2
3699.3 kPa	1013.2 ± 1.2
3716.7 kPa	1013.2 ± 1.2
3734 kPa	1013.3 ± 1.2
3753.9 kPa	1013.3 ± 1.2
3771.2 kPa	1013.3 ± 1.2
3789.1 kPa	1013.3 ± 1.2
3806.2 kPa	1013.3 ± 1.2
3827.7 kPa	1013.4 ± 1.2
3845.4 kPa	1013.4 ± 1.2
3863.8 kPa	1013.3 ± 1.2
3881.9 kPa	1013.3 ± 1.2
3903.9 kPa	1013.3 ± 1.2
3927.5 kPa	1013.3 ± 1.2
4003.7 kPa	1013.4 ± 1.2
4122.2 kPa	1013.5 ± 1.2
4149.2 kPa	1013.6 ± 1.2
4165.7 kPa	1013.5 ± 1.2
4185.8 kPa	1013.5 ± 1.2
4202.9 kPa	1013.6 ± 1.2
4220.2 kPa	1013.5 ± 1.2
4238.1 kPa	1013.5 ± 1.2
4257.1 kPa	1013.5 ± 1.2
4275.3 kPa	1013.5 ± 1.2
4293.5 kPa	1013.7 ± 1.2
4311 kPa	1013.6 ± 1.2
4333.3 kPa	1013.7 ± 1.2
4464.7 kPa	1013.8 ± 1.2
4605.8 kPa	1013.8 ± 1.2
4684.8 kPa	1013.8 ± 1.2
4702.2 kPa	1013.9 ± 1.2
4719.7 kPa	1014 ± 1.2
4737.5 kPa	1013.9 ± 1.2
4776.3 kPa	1013.9 ± 1.2
4798.6 kPa	1013.9 ± 1.2
4817.1 kPa	1014 ± 1.2
4836 kPa	1013.9 ± 1.2
4855.9 kPa	1014 ± 1.2
4875 kPa	1013.9 ± 1.2
4897.8 kPa	1014.2 ± 1.2
